According to the CheMixHub viscosity set:

Test: xn = mol fraction of the nth substance listed

CCCCCCCCCCCC(=O)OC + CC(C)C1CCCCC1
viscosity [mPa·s], 100 kPa
Conditions | x2 = 0.1008 | x2 = 0.2004 | x2 = 0.3006 | x2 = 0.4002 | x2 = 0.5004 | x2 = 0.6003 | x2 = 0.7001 | x2 = 0.8 | x2 = 0.9001
293.15 K | 2.862 | 2.608 | 2.365 | 2.139 | 1.93 | 1.728 | 1.546 | 1.378 | 1.229
298.15 K | 2.558 | 2.342 | 2.133 | 1.937 | 1.756 | 1.579 | 1.419 | 1.271 | 1.137
303.15 K | 2.303 | 2.117 | 1.936 | 1.765 | 1.606 | 1.45 | 1.308 | 1.176 | 1.056
308.15 K | 2.088 | 1.926 | 1.768 | 1.617 | 1.476 | 1.338 | 1.211 | 1.093 | 0.984
313.15 K | 1.904 | 1.759 | 1.621 | 1.488 | 1.363 | 1.239 | 1.126 | 1.018 | 0.92
318.15 K | 1.743 | 1.616 | 1.493 | 1.375 | 1.262 | 1.152 | 1.05 | 0.952 | 0.863
323.15 K | 1.602 | 1.49 | 1.38 | 1.274 | 1.174 | 1.074 | 0.981 | 0.893 | 0.812

COC(=O)CC(C)=O + CC(C)CO
viscosity [mPa·s], 101.3 kPa
Conditions | x1 = 0.1046 | x1 = 0.2052 | x1 = 0.3095 | x1 = 0.4094 | x1 = 0.5075 | x1 = 0.6057 | x1 = 0.7026 | x1 = 0.8059 | x1 = 0.902
298.15 K | 2.24 | 1.81 | 1.598 | 1.463 | 1.385 | 1.352 | 1.35 | 1.38 | 1.449
303.15 K | 1.944 | 1.591 | 1.412 | 1.303 | 1.241 | 1.221 | 1.223 | 1.251 | 1.312
308.15 K | 1.696 | 1.407 | 1.257 | 1.17 | 1.124 | 1.108 | 1.114 | 1.143 | 1.198

CCCCCC[n+]1ccn(C)c1.O=S(=O)([O-])C(F)(F)F + CC(C)O
Conditions | viscosity [mPa·s]
298.15 K, 100 kPa, x2 = 0.1282 | 99.47

CCOC(C)=O + CC(C)O
viscosity [mPa·s], 101.3 kPa
Conditions | x1 = 0.1003 | x1 = 0.2045 | x1 = 0.3082 | x1 = 0.4005 | x1 = 0.4994 | x1 = 0.5952 | x1 = 0.7049 | x1 = 0.7916 | x1 = 0.9011
298.15 K | 1.326 | 0.9655 | 0.767 | 0.6606 | 0.5797 | 0.5283 | 0.4812 | 0.466 | 0.4473
303.15 K | 1.177 | 0.8717 | 0.701 | 0.6122 | 0.5391 | 0.4939 | 0.4525 | 0.4389 | 0.4233
308.15 K | 1.044 | 0.7861 | 0.6407 | 0.5644 | 0.5011 | 0.4617 | 0.4257 | 0.4153 | 0.4006
313.15 K | 0.9286 | 0.7126 | 0.5876 | 0.5224 | 0.4673 | 0.4332 | 0.4012 | 0.3911 | 0.3793
318.15 K | 0.8325 | 0.6477 | 0.5427 | 0.4856 | 0.4365 | 0.4066 | 0.3798 | 0.3711 | 0.3605
323.15 K | 0.7498 | 0.5901 | 0.501 | 0.4503 | 0.4088 | 0.3831 | 0.3586 | 0.3513 | 0.343

COC(=O)CC(C)=O + CC(C)O
viscosity [mPa·s], 101.3 kPa
Conditions | x1 = 0.1028 | x1 = 0.2052 | x1 = 0.3051 | x1 = 0.4085 | x1 = 0.4086 | x1 = 0.5084 | x1 = 0.6057 | x1 = 0.7079 | x1 = 0.8053 | x1 = 0.9038
298.15 K | 1.457 | 1.267 | 1.195 | 1.168 | – | 1.16 | 1.189 | 1.243 | 1.315 | 1.419
303.15 K | 1.279 | 1.124 | 1.068 | 1.051 | – | 1.049 | 1.08 | 1.127 | 1.197 | 1.287
308.15 K | 1.023 | 1.006 | 0.963 | – | 0.952 | 0.956 | 0.985 | 1.032 | 1.094 | 1.133

FC(F)(F)C(F)(F)Cl + CC(F)F
Conditions | viscosity [mPa·s]
299.88 K, 101.13 kPa, x1 = 0.69 | 0.1856

OCC(O)CO + CCC(C)O
viscosity [mPa·s], 101.33 kPa
Conditions | x1 = 0.103 | x1 = 0.2005 | x1 = 0.3005 | x1 = 0.4065 | x1 = 0.5004 | x1 = 0.6005 | x1 = 0.6997 | x1 = 0.7989 | x1 = 0.8998
298.15 K | 4.899 | 8.259 | 14.21 | 26.4 | 50.58 | 96.78 | 190.1 | 327.9 | 521.9
308.15 K | 3.311 | 5.321 | 8.761 | 15.79 | 27.46 | 49.39 | 90.98 | 149.4 | 231.6
318.15 K | 2.387 | 3.648 | 5.727 | 9.681 | 15.6 | 26.39 | 45.42 | 71.57 | 107.4

CCCCCCCCCCCCCCCCCCCl + CCCCC
298 K, 101.3 kPa
Conditions | viscosity [mPa·s]
x2 = 0.1054 | 6.009
x2 = 0.2014 | 4.945
x2 = 0.3067 | 3.902
x2 = 0.4166 | 2.952
x2 = 0.4993 | 2.325
x2 = 0.6122 | 1.613
x2 = 0.7054 | 1.157
x2 = 0.8048 | 0.7477
x2 = 0.9029 | 0.431
